How the values were obtained:
[1] = microplate assay, fluorescence response in the HPX-XO system (O2-. source), with or without catalase or SOD; details: for Fluorescence Intensity (RFU), HPX + XO + catalase: HPX + XO with catalase (5000 U/ml, 10 μl); for Fluorescence Intensity (RFU), HPX + XO + catalase / Fluorescence Intensity (RFU), HPX + XO + SOD: blank subtracted; for Fluorescence Intensity (RFU), HPX + XO + SOD: HPX + XO with superoxide dismutase (10 μl); for fluorescence response in the HPX-XO system on addition of catalase (in words): catalase 5000 U/ml; for fluorescence response in the HPX-XO system on addition of catalase (in words) / fluorescence response in the HPX-XO system in the presence of SOD (in words): 10 μl; for Fluorescence Intensity (RFU), HPX + XO: hypoxanthine (1 mM, 10 μl) + xanthine oxidase (0.26 U/ml, 10 μl), blank without HPX subtracted; for fluorescence response in the HPX-XO system in the presence of SOD (in words): superoxide dismutase
Description: (§1) The fluorescence response to H2O2 achieved by each of the thus-obtained compounds 1a, 1b, and 1c was compared with that to HO. (a hydroxyl radical) and that to O2^−. (a superoxide). As a source of HO., the Fenton reaction between H2O2 (1 mM, 10 μl) and Fe^2+ (5 mM, 10 μl) was used. On the other hand, O2^−. was generated by causing an enzyme reaction between hypoxanthine (HPX) (1 mM, 10 μl) and xanthine oxidase (XO) (0.26 U/ml, 10 μl).
(§2) In Table 1, fluorescence responses observed after reacting the compounds 1a, 1b, and 1c with H2O2, HO., or O2^−. were compared with each other. Numbers in Table 1 represent the fluorescence intensity (RFU). Note here that the RFU is a value obtained by subtracting a fluorescence intensity obtained in the absence of H2O2 or HPX from the measured value.

[2] = 96-well microplate assay, fluorescence response to H2O2; details: for response to H2O2 (in words): 96-well microplate assay; for detection limit for H2O2: 150 μl probe solution, 25° C., 60 minutes, RSD n=8; for detection limit for H2O2 / Fluorescence Intensity (RFU), H2O2: HEPES pH 7.4; for Fluorescence Intensity (RFU), H2O2: value minus intensity in the absence of H2O2, probe 1a 25 μM, 1b and 1c 5 μM; for slope of the linear calibration curve: H2O2 calibration, detection limit to 92.3 nmol; for upper end of the linear calibration range: linear from the detection limit upward
Description: In this assay, a DMSO solution of the compound 1a (10 mM), a DMSO solution of the compound 1b (2 mM), and a DMSO solution of the compound 1c (2 mM) were provided first and then these solutions were diluted 400-fold with a HEPES buffer solution (pH 7.4, 10 mM). Thus, probe solutions of the respective compounds were prepared. In the respective probe solutions, the concentration of the compound 1a was 25 μM, the concentration of the compound 1b was 5 μM, and the concentration of the compound 1c was 5 μM. Then, 150 μl of each of the probe solutions was allowed to react with H2O2 water (0.92 mM, 10 μl) at 25° C. for 60 minutes. The detection limits of the compounds 1a, 1b, and 1c were 46.0 (RSD, n=8; 1.2%), 23.1 (0.5%), and 4.6 (1.0%) pmol, respectively, which are all acceptable for cellular level detection. With regard to each of the compounds 1a, 1b, and 1c, a linear calibration curve with a correlation coefficient of at least 0.999 was obtained when the detected value was in the range from the detection limit to 92.3 nmol.
as §1, §2

[3] = microplate assay, fluorescence response to HO. from the Fenton reaction (H2O2 + Fe2+); details: for Fluorescence Intensity (RFU), H2O2 + Fe^2+: H2O2 (1 mM, 10 μl) + Fe2+ (5 mM, 10 μl) as HO. source, blank subtracted
Description: as §1, §2

[4] = system: Chlamydomonas reinhardtii cells; assay: fluorescence response of probe-loaded alga cells stimulated with Cu2+, PQ or MB under light or in the dark; type: cell-based; details: FIG. 1; for fluorescence increment (in words) / selectivity for Cu2+ plus light conditions over PQ and MB (in words) / fluorescence response of loaded cells (in words): probe 25 μM; for fluorescence increment (in words): Cu2+ and irradiation with light; for fluorescence response of loaded cells (in words): incubation under irradiation with light in the presence of Cu2+, 60 minutes
From the text: Photic stimulation can cause oxidative stress in green algae. Stimulation with Cu^2+ causes intracellular generation of various ROS such as superoxides, hydrogen peroxide, and hydroxyl radicals. Furthermore, when alga cells are activated specifically by paraquat (PQ) or methylene blue (MB), oxidative stress can be caused by the generation of a superoxide or ^1O2. […] In order to load alga cells with the compounds 1a, 1b, and 1c, the derivatives 2a, 2b, and 2c (Scheme 3) as acetylated forms of the compounds 1a, 1b, and 1c were used.
More specifically, first, the compounds 2a, 2b, and 2c respectively were dissolved in DMSO, thus obtaining 10 mM stock solutions of the respective compounds. Next, Chlamydomonas reinhardtii (IAM C-238) cultured by an ordinary method was inoculated into 3 ml of an MBM culture solution. Thereafter, the MBM culture solution was loaded with 7.5 μl of each of the stock solutions of the compounds 2a, 2b, and 2c in the dark at 25° C. for 30 minutes. Thus, probe-loaded cell suspensions were prepared. Furthermore, a 96-well tissue culture plate was provided, and 50 μl of a MBM solution containing the indicated concentration of CuCl2, PQ, or […] was added to the plate. The probe-loaded cell suspension (50 μl) was inoculated to the plate and then incubated under irradiation with light or in the dark. After 60 minutes, fluorescence in the cells was measured using a fluorescence measuring device (trade name “CytoFluor II multiwell fluorescence plate reader”, PerSeptive Biosystems, USA). For the measurement, an excitation filter was set at 485±20 nm and an emission filter was set at 530±25 nm.
FIG. 1 contains graphs showing the correlation between a concentration and a fluorescence increment when the fluorescence response was measured by loading Chlamydomonas reinhardtii cells with the compound 2a, 2b, or 2c (25 μM) or DCFH-DA (50 μM) in the dark at 25° C. for 30 minutes and incubating them in 96-well microplates under irradiation with light or in the dark in the presence of Cu^2+, PQ, or MB for 60 minutes. In FIG. 1, an empty circle indicates the result obtained when the incubation was carried out under irradiation with light and a solid circle indicates the result obtained when the incubation was carried out in the dark.

[5] = microplate assay of the acetylated forms as hydrogen peroxide-detecting probe (esterase requirement); details: microplate assay similar to that of compounds 1

Fluorescence Intensity (RFU), HPX + XO + catalase [1] [RFU]	Fluorescence Intensity (RFU), HPX + XO + SOD [1] [RFU]	fluorescence response in the HPX-XO system on addition of catalase (in words) [1]	Fluorescence Intensity (RFU), HPX + XO [1] [RFU]	fluorescence response in the HPX-XO system in the presence of SOD (in words) [1]	requirement of esterase to serve as hydrogen peroxide-detecting probe (in words) [5]	SMILES	response to H2O2 (in words) [2]	detection limit for H2O2 [2] [pmol]	Fluorescence Intensity (RFU), H2O2 [2] [RFU]	slope of the linear calibration curve [2] [au/nmol]	upper end of the linear calibration range [2] [nmol]	response to HO. compared with that to H2O2 (in words) [3]	Fluorescence Intensity (RFU), H2O2 + Fe^2+ [3] [RFU]	fluorescence increment (in words) [4]	selectivity for Cu2+ plus light conditions over PQ and MB (in words) [4]	fluorescence response of loaded cells (in words) [4]	detection of ROS on Cu2+ stimulation (in words) ([4]; DCFH-DA 50 μM)	detection of oxidative stress caused by PQ and MB (in words) ([4]; DCFH-DA 50 μM)
−49	899	eliminated completely	566	maintained or increased		O=C(O)c1ccccc1-c1c2ccc(=O)cc-2oc2cc(OS(=O)(=O)c3c(F)c(F)c(F)c(F)c3F)ccc12 [Compound 1a]	H2O2 concentration-dependent response	46.0	1150	172	92.3	much smaller than those to H2O2	28					
−51	1733	eliminated completely	1733	maintained or increased		O=C(O)c1ccccc1-c1c2cc(Cl)c(=O)cc-2oc2cc(OS(=O)(=O)c3c(F)c(F)c(F)c(F)c3F)c(Cl)cc12 [Compound 1b]	H2O2 concentration-dependent response	23.1	2193	215	92.3	much smaller than those to H2O2	195					
−44	3340	eliminated completely	3580	maintained or increased		O=C(O)c1ccccc1-c1c2cc(F)c(=O)cc-2oc2cc(OS(=O)(=O)c3c(F)c(F)c(F)c(F)c3F)c(F)cc12 [Compound 1c]	H2O2 concentration-dependent response	4.6	4375	591	92.3	much smaller than those to H2O2	184					
					esterase was necessary	CC(=O)Oc1ccc2c(c1)Oc1cc(OS(=O)(=O)c3c(F)c(F)c(F)c(F)c3F)ccc1C21OC(=O)c2ccccc21 (stereo not drawn) [Compound 2a]								great fluorescence increments	high selectivity	exhibited fluorescence response in a stimulation concentration-dependent manner		
					esterase was necessary	CC(=O)Oc1cc2c(cc1Cl)C1(OC(=O)c3ccccc31)c1cc(Cl)c(OS(=O)(=O)c3c(F)c(F)c(F)c(F)c3F)cc1O2 (stereo not drawn) [Compound 2b]										exhibited fluorescence response in a stimulation concentration-dependent manner		
					esterase was necessary	CC(=O)Oc1cc2c(cc1F)C1(OC(=O)c3ccccc31)c1cc(F)c(OS(=O)(=O)c3c(F)c(F)c(F)c(F)c3F)cc1O2 (stereo not drawn) [Compound 2c]								great fluorescence increments	high selectivity	exhibited fluorescence response in a stimulation concentration-dependent manner		
						CC(=O)Oc1cc2c(cc1Cl)C(c1ccccc1C(=O)O)c1cc(Cl)c(OC(C)=O)cc1O2 [DCFH-DA, reference compound]											detected ROS generated by the Cu^2+ stimulation	detected the oxidative stress caused by PQ and MB effectively

Reference: patent US7491832B2, “Sulfonate compound and fluorescent probe using the same” (Osaka Industrial Promotion Organization, priority 2003, dated 2009)
